# pEC50: −log10 of the molar value. Numbered stars: 1 amine (or outer) side, 2 acyl side, 3 side chain; on linkers, the order of the positions; unused ones are H or OH. Side chains are listed from the residue outwards. Peptide text beside a SMILES is read from it. * marks the point of attachment. C18 diacid = O=C(O)CCCCCCCCCCCCCCCCC(=O)*; C16 diacid = O=C(O)CCCCCCCCCCCCCCC(=O)*; γGlu = O=C(O)[C@H](CCC(=O)[*:2])N[*:1]; AEEA = NCCOCCOCC(=O)O
# Experiments:
# glucagon receptor = target: T1, glucagon receptor (Homo sapiens, UniProt P47871); test: Assay (I) Glucagon activity (cAMP biosensor, FLIPR); assay type: cell-based
# T1 construct: expressed in transfected cells
# [1] = Assay (X) Chemical stability assessment by RP-UPLC; assay type: physicochemical; details: pH 8.15, 14 days at 37° C. vs 5° C., 333 μM
# Experimental: Chemical Stability Assessment
# Lyophilized samples were dissolved in buffer (see below for detailed compositions) to a final concentration of 333 μM and a pH of 8.15, and were incubated for 14 days at 5° C. and 37° C. followed by RP-UPLC analysis. Purity was defined as the area percentage of the main peak in relation to the total area of all integrated peaks in each chromatogram. Purity loss after 14 days at 37° C. was determined as the difference in purity between the samples incubated at 5° C. and 37° C., divided by the purity of the sample after incubation for 14 days at 5° C.
# RP-UPLC analysis was performed using a Waters BEH130 2.1 mm×150 mm, 1.7 μm column operated at 50° C. and a flow rate of 0.4 mL/min using a mobile phase system consisting of typically A: 50 mM Phosphate, 10 w/w % Acetonitrile pH 3 and B: 80 v/v Acetonitrile. UV-detection was performed at 215 nm. The typical gradient profile used for most of the samples is shown below.
# For some individual analogues eluting at substantially different retention times compared with the majority of analogues, some adjustments to the gradient profile were made to better enable purity assessment comparison across samples. Also the composition of the channel B mobile phase component was in some of the analyses exchanged for a 90 v/v % Acetonitrile solvent solution in an attempt to better handle carry-over of material from one injection to the next in the sequence. This was however compensated for by recalculating the gradient profile appropriately.
# Buffer: • 50 mM Dinatriumphosphatdihydrat • 184 mM Propylenglycol • 58 mM Phenol • pH adjusted to 8.15 with H3PO4. In cases where pH was adjusted to 8.15 after re-suspension of analogues, 0.2 M NaOH was used. Assay (XI) Pharmacokinetic Study in Minipigs
# T1 sequence (P47871 26-477): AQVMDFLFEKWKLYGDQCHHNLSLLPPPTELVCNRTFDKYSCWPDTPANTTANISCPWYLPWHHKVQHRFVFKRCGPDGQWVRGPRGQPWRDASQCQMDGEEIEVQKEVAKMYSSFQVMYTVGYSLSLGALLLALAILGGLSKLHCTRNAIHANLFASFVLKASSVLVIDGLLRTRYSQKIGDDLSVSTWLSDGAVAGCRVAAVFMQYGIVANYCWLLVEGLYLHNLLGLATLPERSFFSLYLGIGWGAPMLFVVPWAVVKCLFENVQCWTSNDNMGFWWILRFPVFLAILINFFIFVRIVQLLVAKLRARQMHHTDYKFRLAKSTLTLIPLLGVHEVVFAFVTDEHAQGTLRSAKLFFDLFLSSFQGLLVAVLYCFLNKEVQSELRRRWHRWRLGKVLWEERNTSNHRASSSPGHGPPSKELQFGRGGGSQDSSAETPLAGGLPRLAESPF
Chemical stability [Purity loss/14 days 37 C.] [1] [%],Compound,pEC50 (glucagon receptor)
,"CC(C)C[C@H](NC(=O)[C@H](CC(=O)O)NC(=O)[C@H](CC(C)C)NC(=O)[C@H](Cc1ccc(O)cc1)NC(=O)[C@H](CCCNC(=N)N)NC(=O)[C@H](CO)NC(=O)[C@H](Cc1ccc(O)cc1)NC(=O)[C@H](CC(=O)O)NC(=O)[C@H](CO)NC(=O)[C@@H](NC(=O)[C@H](Cc1ccccc1)NC(=O)[C@@H](NC(=O)CNC(=O)[C@H](CCC(N)=O)NC(=O)[C@H](CO)NC(=O)[C@@H](N)Cc1c[nH]cn1)[C@@H](C)O)[C@@H](C)O)C(=O)N[C@@H](CCCNC(=N)N)C(=O)N[C@@H](CCCNC(=N)N)C(=O)N[C@@H](C)C(=O)N[C@@H](CCC(N)=O)C(=O)N[C@@H](CC(=O)O)C(=O)N[C@@H](Cc1ccccc1)C(=O)N[C@H](C(=O)N[C@@H](CCCCNC(=O)CC[C@H](NC(=O)CC[C@H](NC(=O)COCCOCCNC(=O)COCCOCCNC(=O)CC[C@H](NC(=O)CCCCCCCCCCCCCCCCC(=O)O)C(=O)O)C(=O)O)C(=O)O)C(=O)N[C@@H](Cc1c[nH]c2ccccc12)C(=O)N[C@@H](CC(C)C)C(=O)N[C@@H](CCC(=O)O)C(=O)N[C@@H](CO)C(=O)N[C@H](C(=O)O)[C@@H](C)O)C(C)C [Example 47, N^ε24-[(4S)-4-carboxy-4-[[(4S)-4-carboxy-4-[[2-[2-[2-[[2-[2-[2-[[(4S)-4-carboxy-4-(17-carboxyheptadecanoylamino)butanoyl]amino]ethoxy]ethoxy]acetyl]amino]ethoxy]ethoxy]acetyl]amino]butanoyl]amino]butanoyl]-[Arg12,Leu16,Lys24,Glu27,Ser28]-Glucagon] (H-HSQGTFTSDYSRYLDLRRAQDFVK([γGlu-γGlu-AEEA-AEEA-γGlu-C18 diacid])WLEST-OH)",9.87
8.6,"CC(C)C[C@H](NC(=O)[C@H](Cc1ccc(O)cc1)NC(=O)[C@H](CCCNC(=N)N)NC(=O)[C@H](CO)NC(=O)[C@H](Cc1ccc(O)cc1)NC(=O)[C@H](CC(=O)O)NC(=O)[C@H](CO)NC(=O)[C@@H](NC(=O)[C@H](Cc1ccccc1)NC(=O)[C@@H](NC(=O)CNC(=O)[C@H](CCC(N)=O)NC(=O)[C@H](CO)NC(=O)[C@@H](N)Cc1c[nH]cn1)[C@@H](C)O)[C@@H](C)O)C(=O)N[C@@H](CCC(=O)O)C(=O)N[C@@H](CO)C(=O)N[C@@H](CCCNC(=N)N)C(=O)N[C@@H](CCCNC(=N)N)C(=O)N[C@@H](C)C(=O)N[C@@H](CCC(N)=O)C(=O)N[C@@H](CC(=O)O)C(=O)N[C@@H](Cc1ccccc1)C(=O)N[C@H](C(=O)N[C@@H](CCCCNC(=O)CC[C@H](NC(=O)CC[C@H](NC(=O)COCCOCCNC(=O)COCCOCCNC(=O)CC[C@H](NC(=O)CCCCCCCCCCCCCCCCC(=O)O)C(=O)O)C(=O)O)C(=O)O)C(=O)N[C@@H](Cc1c[nH]c2ccccc12)C(=O)N[C@@H](CC(C)C)C(=O)N[C@@H](CC(C)C)C(=O)N[C@@H](CO)C(=O)N[C@H](C(=O)O)[C@@H](C)O)C(C)C [Example 14, N^ε24-[(4S)-4-carboxy-4-[[(4S)-4-carboxy-4-[[2-[2-[2-[[2-[2-[2-[[(4S)-4-carboxy-4-(17-carboxyheptadecanoylamino)butanoyl]amino]ethoxy]ethoxy]acetyl]amino]ethoxy]ethoxy]acetyl]amino]butanoyl]amino]butanoyl]-[Arg^12,Glu^15,Lys^24,Leu^27,Ser^25]-Glucagon] (H-HSQGTFTSDYSRYLESRRAQDFVK([γGlu-γGlu-AEEA-AEEA-γGlu-C18 diacid])WLLST-OH; N-terminus and C-terminus assumed)",
,"CC(C)C[C@H](NC(=O)[C@H](Cc1c[nH]c2ccccc12)NC(=O)[C@H](CCCCNC(=O)CC[C@H](NC(=O)CC[C@H](NC(=O)COCCOCCNC(=O)COCCOCCNC(=O)CC[C@H](NC(=O)CCCCCCCCCCCCCCCCC(=O)O)C(=O)O)C(=O)O)C(=O)O)NC(=O)[C@@H](NC(=O)[C@H](Cc1ccccc1)NC(=O)[C@H](CCC(=O)O)NC(=O)[C@H](CCC(N)=O)NC(=O)[C@H](C)NC(=O)[C@H](CCCNC(=N)N)NC(=O)[C@H](CCCNC(=N)N)NC(=O)[C@@H](NC(=O)[C@H](CC(=O)O)NC(=O)[C@H](CC(C)C)NC(=O)[C@H](Cc1ccc(O)cc1)NC(=O)[C@H](CCCCN)NC(=O)[C@H](CO)NC(=O)[C@H](Cc1ccc(O)cc1)NC(=O)[C@H](CC(=O)O)NC(=O)[C@H](CO)NC(=O)[C@@H](NC(=O)[C@H](Cc1ccccc1)NC(=O)[C@@H](NC(=O)CNC(=O)[C@H](CCC(N)=O)NC(=O)[C@H](CO)NC(=O)[C@@H](N)Cc1c[nH]cn1)[C@@H](C)O)[C@@H](C)O)[C@@H](C)O)C(C)C)C(=O)N[C@@H](CC(C)C)C(=O)N[C@@H](CO)C(=O)N[C@H](C(=O)O)[C@@H](C)O [Example 31, N^ε24-[(4S)-4-carboxy-4-[[(4S)-4-carboxy-4-[[2-[2-[2-[[2-[2-[2-[[(4S)-4-carboxy-4-(17-carboxyheptadecanoylamino)butanoyl]amino]ethoxy]ethoxy]acetyl]amino]ethoxy]ethoxy]acetyl]amino]butanoyl]amino]butanoyl]-[Thr16,Glu21,Lys24,Leu27,Ser28]-Glucagon] (H-HSQGTFTSDYSKYLDTRRAQEFVK([γGlu-γGlu-AEEA-AEEA-γGlu-C18 diacid])WLLST-OH)",10.14
,"CC(C)C[C@H](NC(=O)[C@H](Cc1ccc(O)cc1)NC(=O)[C@H](CCCCN)NC(=O)[C@H](CO)NC(=O)[C@H](Cc1ccc(O)cc1)NC(=O)[C@H](CC(=O)O)NC(=O)[C@H](CO)NC(=O)[C@@H](NC(=O)[C@H](Cc1ccccc1)NC(=O)[C@@H](NC(=O)CNC(=O)[C@H](CCC(N)=O)NC(=O)[C@H](CO)NC(=O)[C@@H](N)Cc1c[nH]cn1)[C@@H](C)O)[C@@H](C)O)C(=O)N[C@@H](CCC(=O)O)C(=O)N[C@@H](CO)C(=O)N[C@@H](CCCNC(=N)N)C(=O)N[C@@H](CCCNC(=N)N)C(=O)N[C@@H](C)C(=O)N[C@@H](CCC(N)=O)C(=O)N[C@@H](CC(=O)O)C(=O)N[C@@H](Cc1ccccc1)C(=O)N[C@H](C(=O)N[C@@H](CCCCNC(=O)CC[C@H](NC(=O)COCCOCCNC(=O)COCCOCCNC(=O)CC[C@H](NC(=O)CCCCCCCCCCCCCCCCC(=O)O)C(=O)O)C(=O)O)C(=O)N[C@@H](Cc1c[nH]c2ccccc12)C(=O)N[C@@H](CC(C)C)C(=O)N[C@@H](CC(C)C)C(=O)N[C@@H](CC(N)=O)C(=O)N[C@H](C(=O)O)C(C)C)C(C)C [Example 33, N^ε24-[(4S)-4-carboxy-4-[[2-[2-[2-[[2-[2-[2-[[(4S)-4-carboxy-4-(17-carboxyheptadecanoylamino)butanoyl]amino]ethoxy]ethoxy]acetyl]amino]ethoxy]ethoxy]acetyl]amino]butanoyl]-[Glu15,Lys24,Leu27,Val29]-Glucagon]",9.04
,"CC(C)C[C@H](NC(=O)[C@H](CC(=O)O)NC(=O)[C@H](CC(C)C)NC(=O)[C@H](Cc1ccc(O)cc1)NC(=O)[C@H](CCCNC(=N)N)NC(=O)[C@H](CO)NC(=O)[C@H](Cc1ccc(O)cc1)NC(=O)[C@H](CC(=O)O)NC(=O)[C@H](CO)NC(=O)[C@@H](NC(=O)[C@H](Cc1ccccc1)NC(=O)[C@@H](NC(=O)CNC(=O)[C@H](CCC(N)=O)NC(=O)[C@H](CO)NC(=O)[C@@H](N)Cc1c[nH]cn1)[C@@H](C)O)[C@@H](C)O)C(=O)N[C@@H](CCCNC(=N)N)C(=O)N[C@@H](CCCNC(=N)N)C(=O)N[C@@H](C)C(=O)N[C@@H](CCC(N)=O)C(=O)N[C@@H](CC(=O)O)C(=O)N[C@@H](Cc1ccccc1)C(=O)N[C@H](C(=O)N[C@@H](CCCCNC(=O)CC[C@H](NC(=O)CC[C@H](NC(=O)CC[C@H](NC(=O)CC[C@H](NC(=O)CCCCCCCCCCCCCCC(=O)O)C(=O)O)C(=O)O)C(=O)O)C(=O)O)C(=O)N[C@@H](Cc1c[nH]c2ccccc12)C(=O)N[C@@H](CC(C)C)C(=O)N[C@@H](CC(C)C)C(=O)N[C@@H](CO)C(=O)N[C@H](C(=O)O)[C@@H](C)O)C(C)C [Example 74, N^ε24-[(4S)-4-carboxy-4-[[(4S)-4-carboxy-4-[[(4S)-4-carboxy-4-[[(4S)-4-carboxy-4-(15-carboxypentadecanoylamino)butanoyl]amino]butanoyl]amino]butanoyl]amino]butanoyl]-[Arg12,Leu16,Lys24,Leu27,Ser28]-Glucagon] (H-HSQGTFTSDYSRYLDLRRAQDFVK([γGlu-γGlu-γGlu-γGlu-C16 diacid])WLLST-OH)",9.96
